From PubChem BioAssay (NCI)
Several values for one entry are separate records, joined by “and”; a condition that tells them apart may be missing. Identical values can stand only once.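 48-hour exposure; five concentrations; linearly interpolated endpoints. At the GI50, growth is halved. TGI: concentration producing complete growth inhibition.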

Legend:
Assay in all cases: NCI-60 cell line screen, 48 h
SNB-19 CNS = system: SNB-19 CNS
KM12 colon = system: KM12 colon
SK-MEL-28 melanoma = system: SK-MEL-28 melanoma
T-47D breast = system: T-47D breast
SK-MEL-5 melanoma = system: SK-MEL-5 melanoma
HCT-116 colon = system: HCT-116 colon
SR leukemia = system: SR leukemia
HL-60(TB) leukemia = system: HL-60(TB) leukemia
M14 melanoma = system: M14 melanoma
MALME-3M melanoma = system: MALME-3M melanoma
RPMI-8226 leukemia = system: RPMI-8226 leukemia
RXF 393 renal = system: RXF 393 renal
786-0 renal = system: 786-0 renal
LOX IMVI melanoma = system: LOX IMVI melanoma
SK-MEL-2 melanoma = system: SK-MEL-2 melanoma
CAKI-1 renal = system: CAKI-1 renal
ACHN renal = system: ACHN renal
HOP-62 NSCLC = system: HOP-62 NSCLC
OVCAR-8 ovarian = system: OVCAR-8 ovarian
PC-3 prostate = system: PC-3 prostate
SNB-75 CNS = system: SNB-75 CNS
HS 578T breast = system: HS 578T breast
UACC-62 melanoma = system: UACC-62 melanoma
HCT-15 colon = system: HCT-15 colon
OVCAR-5 ovarian = system: OVCAR-5 ovarian
OVCAR-3 ovarian = system: OVCAR-3 ovarian
UO-31 renal = system: UO-31 renal
HT29 colon = system: HT29 colon
SW-620 colon = system: SW-620 colon
TK-10 renal = system: TK-10 renal
NCI-H460 lung = system: NCI-H460 lung
IGROV1 ovarian = system: IGROV1 ovarian
HOP-92 NSCLC = system: HOP-92 NSCLC
HCC-2998 colon = system: HCC-2998 colon
SK-OV-3 ovarian = system: SK-OV-3 ovarian
MOLT-4 leukemia = system: MOLT-4 leukemia
U251 CNS = system: U251 CNS
MCF7 breast = system: MCF7 breast
MDA-MB-231 breast = system: MDA-MB-231 breast
NCI/ADR-RES ovarian = system: NCI/ADR-RES ovarian
SF-295 CNS = system: SF-295 CNS
UACC-257 melanoma = system: UACC-257 melanoma
DU-145 prostate = system: DU-145 prostate
SF-268 CNS = system: SF-268 CNS
CCRF-CEM leukemia = system: CCRF-CEM leukemia
NCI-H226 lung = system: NCI-H226 lung
COLO 205 colon = system: COLO 205 colon
BT-549 breast = system: BT-549 breast
A549 NSCLC = system: A549 NSCLC
K-562 leukemia = system: K-562 leukemia
NCI-H522 lung = system: NCI-H522 lung
A498 renal = system: A498 renal
NCI-H23 lung = system: NCI-H23 lung
SF-539 CNS = system: SF-539 CNS
OVCAR-4 ovarian = system: OVCAR-4 ovarian
SN12C renal = system: SN12C renal
MDA-MB-435 = system: MDA-MB-435

In the case of `CN1C[C@@H]2Cn3c(c(C4=C(c5cn(C)c6ccccc56)C(=O)NC4=O)c4ccccc43)C[C@H]2C1`, the GI50 (SNB-19 CNS) is reported as 6.44 µM and 5.87 µM, the TGI (SNB-19 CNS) is reported as 18.4 µM and 16.4 µM and the GI50 (KM12 colon) is reported as 4.49 µM and 3.67 µM. The TGI (KM12 colon) was 9.19 µM and 7.87 µM, the GI50 (SK-MEL-28 melanoma) was 4.34 µM and 4.35 µM and the TGI (SK-MEL-28 melanoma) was 8.62 µM and 8.47 µM. For the same molecule, the GI50 (T-47D breast) was 4.26 µM and 5.32 µM, the TGI (T-47D breast) was 9.46 µM and 11.5 µM and the GI50 (SK-MEL-5 melanoma) was 4.17 µM and 3.68 µM. For the same molecule, the TGI (SK-MEL-5 melanoma) was 8.01 µM and 7.28 µM, the GI50 (HCT-116 colon) was 4.2 µM and 3.02 µM and the TGI (HCT-116 colon) was 9.66 µM and 8.22 µM. For the same molecule, the GI50 (SR leukemia) was 4.89 µM and 1.77 µM, the TGI (SR leukemia) was 14.4 µM and 7.38 µM and the GI50 (HL-60(TB) leukemia) was 5.48 µM and 3.63 µM. For the same molecule, the TGI (HL-60(TB) leukemia) was 10.5 µM and 8.53 µM, the GI50 (M14 melanoma) was 4.07 µM and 3.96 µM and the TGI (M14 melanoma) was 8.24 µM and 7.83 µM. For the same molecule, the GI50 (MALME-3M melanoma) was 3.78 µM and 3.89 µM, the TGI (MALME-3M melanoma) was 7.36 µM and 8.03 µM and the GI50 (RPMI-8226 leukemia) was 5.56 µM and 4.7 µM. For the same molecule, the TGI (RPMI-8226 leukemia) was 11.9 µM and 10.3 µM, the GI50 (RXF 393 renal) was 3.53 µM and 3.17 µM and the TGI (RXF 393 renal) was 7.19 µM and 6.68 µM. For the same molecule, the GI50 (786-0 renal) was 4.75 µM and 4.57 µM, the TGI (786-0 renal) was 9.33 µM and 8.9 µM and the GI50 (LOX IMVI melanoma) was 4.16 µM and 3.96 µM. The TGI (LOX IMVI melanoma) was 7.9 µM and 7.86 µM, the GI50 (SK-MEL-2 melanoma) was 4.52 µM and 3.91 µM and the TGI (SK-MEL-2 melanoma) was 8.92 µM and 7.75 µM. For the same molecule, the GI50 (CAKI-1 renal) was 3.43 µM and 4.29 µM, the TGI (CAKI-1 renal) was 8.28 µM and 9.96 µM and the GI50 (ACHN renal) was 4.16 µM and 3.51 µM. For the same molecule, the TGI (ACHN renal) was 12.6 µM and 8.98 µM, the GI50 (HOP-62 NSCLC) was 4.29 µM and 4.01 µM and the TGI (HOP-62 NSCLC) was 9.32 µM and 8.42 µM. For the same molecule, the GI50 (OVCAR-8 ovarian) was 4.74 µM and 4.35 µM, the TGI (OVCAR-8 ovarian) was 11.4 µM and 11.1 µM and the GI50 (PC-3 prostate) was 3.91 µM and 2.81 µM. The TGI (PC-3 prostate) was 11 µM and 7.08 µM, the GI50 (SNB-75 CNS) was 0.441 µM and 0.259 µM and the TGI (SNB-75 CNS) was 3.79 µM and 3.6 µM. The GI50 (HS 578T breast) was 2.71 µM and 2.63 µM, the TGI (HS 578T breast) was 8.34 µM and 9.51 µM and the GI50 (UACC-62 melanoma) was 3.89 µM and 3.61 µM. The TGI (UACC-62 melanoma) was 7.64 µM and 7.19 µM, the GI50 (HCT-15 colon) was 4.41 µM and 3.58 µM and the TGI (HCT-15 colon) was 13.1 µM and 10.9 µM. For the same molecule, the GI50 (OVCAR-5 ovarian) was 6.86 µM and 5.42 µM, the TGI (OVCAR-5 ovarian) was 23.1 µM and 17.2 µM and the GI50 (OVCAR-3 ovarian) was 4.42 µM and 4.64 µM. The TGI (OVCAR-3 ovarian) was 9.42 µM and 10.9 µM, the GI50 (UO-31 renal) was 2.01 µM and 2.98 µM and the TGI (UO-31 renal) was 5.38 µM and 6.66 µM. For the same molecule, the GI50 (HT29 colon) was 3.87 µM and 3.22 µM, the TGI (HT29 colon) was 10.8 µM and 11.6 µM and the GI50 (SW-620 colon) was 4.34 µM and 3.22 µM. The TGI (SW-620 colon) was 9.21 µM and 8.94 µM, the GI50 (TK-10 renal) was 3.5 µM and 3.74 µM and the TGI (TK-10 renal) was 7.6 µM and 8.41 µM. For the same molecule, the GI50 (NCI-H460 lung) was 4.61 µM and 4.35 µM, the TGI (NCI-H460 lung) was 8.9 µM and the GI50 (IGROV1 ovarian) was 5.73 µM and 6.57 µM. The TGI (IGROV1 ovarian) was 11 µM and 15 µM, the GI50 (HOP-92 NSCLC) was 6.76 µM and the TGI (HOP-92 NSCLC) was 12.7 µM. The GI50 (HCC-2998 colon) was 4.59 µM and 4.4 µM, the TGI (HCC-2998 colon) was 8.71 µM and 9.65 µM and the GI50 (SK-OV-3 ovarian) was 4.56 µM and 4.06 µM. The TGI (SK-OV-3 ovarian) was 11.8 µM and 11.9 µM, the GI50 (MOLT-4 leukemia) was 5.46 µM and 3.49 µM and the TGI (MOLT-4 leukemia) was 16.8 µM and 11.9 µM. The GI50 (U251 CNS) was 3.59 µM and 2.83 µM, the TGI (U251 CNS) was 7.27 µM and 6.37 µM and the GI50 (MCF7 breast) was 3.6 µM and 3.15 µM. The TGI (MCF7 breast) was 8.7 µM and 9.66 µM, the GI50 (MDA-MB-231 breast) was 4.37 µM and 4.1 µM and the TGI (MDA-MB-231 breast) was 8.85 µM and 9.22 µM. The GI50 (NCI/ADR-RES ovarian) was 6.46 µM and 8.53 µM, the TGI (NCI/ADR-RES ovarian) was 16.8 µM and 25 µM and the GI50 (SF-295 CNS) was 3.42 µM and 3.76 µM. The TGI (SF-295 CNS) was 7.15 µM and 8.89 µM, the GI50 (UACC-257 melanoma) was 4.03 µM and 3.93 µM and the TGI (UACC-257 melanoma) was 8.01 µM and 7.6 µM. For the same molecule, the GI50 (DU-145 prostate) was 6.27 µM and 5.46 µM, the TGI (DU-145 prostate) was 16.3 µM and 14.7 µM and the GI50 (SF-268 CNS) was 4.8 µM and 4.93 µM. The TGI (SF-268 CNS) was 9.46 µM and 9.97 µM, the GI50 (CCRF-CEM leukemia) was 2.13 µM and 5.69 µM and the TGI (CCRF-CEM leukemia) was 11.7 µM and 17.6 µM. The GI50 (NCI-H226 lung) was 4.53 µM and 4.06 µM, the TGI (NCI-H226 lung) was 15 µM and 10.9 µM and the GI50 (COLO 205 colon) was 3.09 µM and 1.96 µM. The TGI (COLO 205 colon) was 6.7 µM and 5.72 µM, the GI50 (BT-549 breast) was 4.51 µM and 4.36 µM and the TGI (BT-549 breast) was 8.4 µM and 8.59 µM. The GI50 (A549 NSCLC) was 4.4 µM and 3.51 µM, the TGI (A549 NSCLC) was 10.5 µM and 8.75 µM and the GI50 (K-562 leukemia) was 4.9 µM and 2.37 µM. The TGI (K-562 leukemia) was 10.4 µM and 6.88 µM, the GI50 (NCI-H522 lung) was 4.16 µM and 3.63 µM and the TGI (NCI-H522 lung) was 8.15 µM and 7.81 µM. The GI50 (A498 renal) was 4.76 µM and 4.45 µM, the TGI (A498 renal) was 8.59 µM and 8.23 µM and the GI50 (NCI-H23 lung) was 4.96 µM and 6.11 µM. For the same molecule, the TGI (NCI-H23 lung) was 10.7 µM and 15.3 µM, the GI50 (SF-539 CNS) was 3.97 µM and 3.57 µM and the TGI (SF-539 CNS) was 7.83 µM and 7.12 µM. For the same molecule, the GI50 (OVCAR-4 ovarian) was 3.36 µM and 3.48 µM, the TGI (OVCAR-4 ovarian) was 9.12 µM and 8.91 µM and the GI50 (SN12C renal) was 3.45 µM and 3.3 µM. For the same molecule, the TGI (SN12C renal) was 8.8 µM and 8.65 µM, the GI50 (MDA-MB-435) was 3.43 µM and 3.16 µM and the TGI (MDA-MB-435) was 7.09 µM.
